# Results reported in US10336759B2, “Salts and processes of preparing a PI3K inhibitor” (Incyte Corporation, priority 2015, dated 2019).
# Key:
# JAK1 = JAK1 (Homo sapiens (Human), UniProt P23458); experiment: Assay A, JAK1 IC50 at 1 mM ATP; type: biochemical; settings: method of Assay A at 1 mM ATP; #3 data for enantiomer 1, #14 data for enantiomer 2
# JAK2 = JAK2 (Homo sapiens (Human), UniProt O60674); experiment: Assay A, JAK2 versus JAK1 (ratio); type: biochemical; settings: ratio of IC50s, Assay A at 1 mM ATP
# Sequence of JAK2 (O60674 whole entry, species assumed): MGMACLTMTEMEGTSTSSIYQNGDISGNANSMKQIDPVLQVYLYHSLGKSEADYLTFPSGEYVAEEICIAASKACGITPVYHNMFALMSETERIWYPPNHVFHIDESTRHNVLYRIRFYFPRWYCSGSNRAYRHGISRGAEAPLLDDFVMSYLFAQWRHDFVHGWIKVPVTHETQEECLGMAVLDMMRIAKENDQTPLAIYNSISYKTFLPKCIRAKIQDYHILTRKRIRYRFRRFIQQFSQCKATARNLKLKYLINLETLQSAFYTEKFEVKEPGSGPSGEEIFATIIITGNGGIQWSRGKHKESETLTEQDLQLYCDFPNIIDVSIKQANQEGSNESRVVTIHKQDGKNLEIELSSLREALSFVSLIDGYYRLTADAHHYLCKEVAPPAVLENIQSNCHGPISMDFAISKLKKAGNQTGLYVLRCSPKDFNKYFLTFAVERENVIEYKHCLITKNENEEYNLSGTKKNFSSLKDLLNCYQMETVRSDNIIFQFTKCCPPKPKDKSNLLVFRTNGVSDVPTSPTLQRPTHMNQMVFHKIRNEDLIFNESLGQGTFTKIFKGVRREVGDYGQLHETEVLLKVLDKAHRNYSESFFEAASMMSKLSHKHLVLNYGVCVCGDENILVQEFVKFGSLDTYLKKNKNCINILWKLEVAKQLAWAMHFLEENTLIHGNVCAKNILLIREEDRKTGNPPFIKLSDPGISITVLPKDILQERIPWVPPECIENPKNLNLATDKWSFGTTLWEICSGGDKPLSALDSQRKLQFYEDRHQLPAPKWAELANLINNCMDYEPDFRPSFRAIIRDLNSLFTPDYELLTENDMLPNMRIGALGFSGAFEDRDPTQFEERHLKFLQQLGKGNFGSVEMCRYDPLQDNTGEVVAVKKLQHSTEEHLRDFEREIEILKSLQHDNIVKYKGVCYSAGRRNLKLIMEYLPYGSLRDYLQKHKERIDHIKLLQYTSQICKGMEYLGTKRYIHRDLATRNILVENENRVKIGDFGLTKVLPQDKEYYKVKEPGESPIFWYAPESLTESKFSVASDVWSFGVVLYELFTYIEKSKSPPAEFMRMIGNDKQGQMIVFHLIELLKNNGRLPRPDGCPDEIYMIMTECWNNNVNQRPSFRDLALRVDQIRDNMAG
# Sequence of JAK1 (P23458 whole entry, species assumed): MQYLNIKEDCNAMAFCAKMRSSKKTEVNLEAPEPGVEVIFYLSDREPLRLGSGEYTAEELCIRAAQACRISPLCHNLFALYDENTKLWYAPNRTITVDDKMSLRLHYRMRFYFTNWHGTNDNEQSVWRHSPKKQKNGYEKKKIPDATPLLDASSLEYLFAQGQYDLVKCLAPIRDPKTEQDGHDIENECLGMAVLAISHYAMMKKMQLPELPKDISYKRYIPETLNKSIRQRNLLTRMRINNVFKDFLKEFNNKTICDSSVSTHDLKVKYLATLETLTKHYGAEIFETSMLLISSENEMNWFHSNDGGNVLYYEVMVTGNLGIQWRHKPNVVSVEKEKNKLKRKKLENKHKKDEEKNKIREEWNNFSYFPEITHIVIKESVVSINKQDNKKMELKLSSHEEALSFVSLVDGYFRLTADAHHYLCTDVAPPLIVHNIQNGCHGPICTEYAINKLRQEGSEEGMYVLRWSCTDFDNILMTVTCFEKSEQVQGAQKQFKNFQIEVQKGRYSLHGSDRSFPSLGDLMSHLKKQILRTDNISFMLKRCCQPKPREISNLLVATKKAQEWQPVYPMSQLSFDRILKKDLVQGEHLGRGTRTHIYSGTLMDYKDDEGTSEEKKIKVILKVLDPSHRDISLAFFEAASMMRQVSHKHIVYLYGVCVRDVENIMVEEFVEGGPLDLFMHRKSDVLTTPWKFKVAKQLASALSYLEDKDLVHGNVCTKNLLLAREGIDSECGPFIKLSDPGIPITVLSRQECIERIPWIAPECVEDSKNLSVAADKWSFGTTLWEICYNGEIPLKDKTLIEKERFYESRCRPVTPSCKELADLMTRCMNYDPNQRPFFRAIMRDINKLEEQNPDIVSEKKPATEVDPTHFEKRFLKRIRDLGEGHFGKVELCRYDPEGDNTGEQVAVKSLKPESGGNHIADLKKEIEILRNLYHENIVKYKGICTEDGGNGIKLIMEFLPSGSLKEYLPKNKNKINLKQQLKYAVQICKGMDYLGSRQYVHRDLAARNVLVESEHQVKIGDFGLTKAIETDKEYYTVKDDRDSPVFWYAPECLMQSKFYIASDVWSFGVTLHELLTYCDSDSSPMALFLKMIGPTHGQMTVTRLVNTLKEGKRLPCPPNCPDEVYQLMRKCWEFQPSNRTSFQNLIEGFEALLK
SMILES,IC50 (JAK1) [nM],JAK2/JAK1 (JAK2)
"C[C@@H](O)c1nc2cnc3ccsc3c2n1[C@H]1CC[C@H](CC#N)OC1 [Example 1, ((2R,5S)-5-{2-[(1R)-1-hydroxyethyl]-1H-imidazo[4,5-d]thieno[3,2-b]pyridin-1-yl}tetrahydro-2H-pyran-2-yl)acetonitrile]",,>10
"N#CC[C@]1(n2cc(-c3ncnc4[nH]ccc34)cn2)C[C@H](N2CCC(Oc3cc(CN4CCC[C@@H]4CO)cc(C(F)(F)F)n3)CC2)C1 [Example 13, {trans-3-(4-{[4-{[(2R)-2-(hydroxymethyl)pyrrolidin-1-yl]methyl}-6-(trifluoromethyl)pyridin-2-yl]oxy}piperidin-1-yl)-1-[4-(7H-pyrrolo[2,3-d]pyrimidin-4-yl)-1H-pyrazol-1-yl]cyclobutyl}acetonitrile]",< 10,>10
"C[C@H](NC(=O)c1cc(F)c(N2CC(CC#N)(n3cc(-c4ncnc5[nH]ccc45)cn3)C2)cc1F)C(F)(F)F [Example 16, 4-{3-(cyanomethyl)-3-[4-(7H-pyrrolo[2,3-d]pyrimidin-4-yl)-1H-pyrazol-1-yl]azetidin-1-yl}-2,5-difluoro-N-[(1S)-2,2,2-trifluoro-1-methylethyl]benzamide]",< 10,>10
"N#CCC1(n2cc(-c3ncnc4[nH]ccc34)cn2)CN([C@H]2CC[C@@H](Oc3cc(CCO)nc(C(F)(F)F)n3)CC2)C1 [Example 18, {1-(cis-4-{[6-(2-hydroxyethyl)-2-(trifluoromethyl)pyrimidin-4-yl]oxy}cyclohexyl)-3-[4-(7H-pyrrolo[2,3-d]pyrimidin-4-yl)-1H-pyrazol-1-yl]azetidin-3-yl}acetonitrile]",< 10,>10
"CCNCc1cc(O[C@H]2CC[C@@H](N3CC(CC#N)(n4cc(-c5ncnc6[nH]ccc56)cn4)C3)CC2)nc(C(F)(F)F)c1 [Example 19, {1-(cis-4-{[4-[(ethylamino)methyl]-6-(trifluoromethyl)pyridin-2-yl]oxy}cyclohexyl)-3-[4-(7H-pyrrolo[2,3-d]pyrimidin-4-yl)-1H-pyrazol-1-yl]lazetidin-3-yl}acetonitrile]",< 10,>10
"CC(C)(O)c1cc(O[C@H]2CC[C@@H](N3CC(CC#N)(n4cc(-c5ncnc6[nH]ccc56)cn4)C3)CC2)nc(C(F)(F)F)c1 [Example 20, {1-(cis-4-{[4-(1-hydroxy-1-methylethyl)-6-(trifluoromethyl)pyridin-2-yl]oxy}cyclohexyl)-3-[4-(7H-pyrrolo[2,3-d]pyrimidin-4-yl)-1H-pyrazol-1-yl]azetidin-3-yl}acetonitrile]",< 10,>10
N#CCC1(n2cc(-c3ncnc4[nH]ccc34)cn2)CN([C@H]2CC[C@@H](Oc3cc(CN4CC[C@@H](O)C4)cc(C(F)(F)F)n3)CC2)C1 [Example 21],< 10,>10
"N#CCC1(n2cc(-c3ncnc4[nH]ccc34)cn2)CN([C@H]2CC[C@@H](Oc3cc(CN4CC[C@H](O)C4)cc(C(F)(F)F)n3)CC2)C1 [Example 22, {1-(cis-4-{[4-{[(3S)-3-hydroxypyrrolidin-1-yl]methyl}-6-(trifluoromethyl)pyridin-2-yl]oxy}cyclohexyl)-3-[4-(7H-pyrrolo[2,3-d]pyrimidin-4-yl)-1H-pyrazol-1-yl]azetidin-3-yl}acetonitrile]",< 10,>10
"C[C@@H](CO)NCc1cc(OC2CCN([C@H]3C[C@](CC#N)(n4cc(-c5ncnc6[nH]ccc56)cn4)C3)CC2)nc(C(F)(F)F)c1 [Example 23, {trans-3-(4-{[4-({[(1S)-2-hydroxy-1-methylethyl]amino}methyl)-6-(trifluoromethyl)pyridin-2-yl]oxy}piperidin-1-yl)-1-[4-(7H-pyrrolo[2,3-d]pyrimidin-4-yl)-1H-pyrazol-1-yl]cyclobutyl}acetonitrile]",< 10,>10
"C[C@@H](O)CNCc1cc(OC2CCN([C@H]3C[C@](CC#N)(n4cc(-c5ncnc6[nH]ccc56)cn4)C3)CC2)nc(C(F)(F)F)c1 [Example 24, {trans-3-(4-{[4-({[(2R)-2-hydroxypropyl]amino}methyl)-6-(trifluoromethyl)pyridin-2-yl]oxy}piperidin-1-yl)-1-[4-(7H-pyrrolo[2,3-d]pyrimidin-4-yl)-1H-pyrazol-1-yl]cyclobutyl}acetonitrile]",< 10,>10
"C[C@H](O)CNCc1cc(OC2CCN([C@H]3C[C@](CC#N)(n4cc(-c5ncnc6[nH]ccc56)cn4)C3)CC2)nc(C(F)(F)F)c1 [Example 25, {trans-3-(4-{[4-({[(2S)-2-hydroxypropyl]amino}methyl)-6-(trifluoromethyl)pyridin-2-yl]oxy}piperidin-1-yl)-1-[4-(7H-pyrrolo[2,3-d]pyrimidin-4-yl)-1H-pyrazol-1-yl]cyclobutyl}acetonitrile]",< 10,>10
"N#CC[C@]1(n2cc(-c3ncnc4[nH]ccc34)cn2)C[C@H](N2CCC(Oc3cc(CCO)cc(C(F)(F)F)n3)CC2)C1 [Example 26, {trans-3-(4-{[4-(2-hydroxyethyl)-6-(trifluoromethyl)pyridin-2-yl]oxy}piperidin-1-yl)-1-[4-(7H-pyrrolo[2,3-d]pyrimidin-4-yl)-1H-pyrazol-1-yl]cyclobutyl}acetonitrile]",< 10,>10

# Now from value to compound:
IC50 (JAK1) [nM],JAK2/JAK1 (JAK2),SMILES
< 10,>10,"N#CCC(C1CCN(c2cccc(Cl)n2)C1)n1cc(-c2ncnc3[nH]ccc23)cn1 (single isomer, unassigned) [Example 3, 3-[1-(6-chloropyridin-2-yl)pyrrolidin-3-yl]-3-[4-(7H-pyrrolo[2,3-d]pyrimidin-4-yl)-1H-pyrazol-1-yl]propanenitrile]"
< 10,>10,"N#CCC(C1CCN(c2nc3cccnc3o2)C1)n1cc(-c2ncnc3[nH]ccc23)cn1 (stereo not shown) [Example 4, 3-(1-[1,3]oxazolo[5,4-b]pyridin-2-ylpyrrolidin-3-yl)-3-[4-(7H-pyrrolo[2,3-. d]pyrimidin-4-yl)-1H-pyrazol-1-yl]propanenitrile]"
< 10,>10,"N#CCC(CN1CCN(C(=O)c2ccc(C#N)cc2F)CC1)n1cc(-c2ncnc3[nH]ccc23)cn1 (stereo not shown) [Example 5, 4-[(4-{3-cyano-2-[4-(7H-pyrrolo[2,3-d]pyrimidin-4-yl)-1H-pyrazol-1-yl)propyl}piperazin-1-yl)carbonyl]-3-fluorobenzonitrile]"
< 10,>10,"N#CCC(CN1CCN(C(=O)c2ccc(C#N)cc2F)CC1)n1ccc(-c2ncnc3[nH]ccc23)c1 (stereo not shown) [Example 6, 4-[(4-{3-cyano-2-[3-(7H-pyrrolo[2,3-d]pyrimidin-4-yl)-1H-pyrrol-1-yl]propyl}piperazin-1-yl)carbonyl]-3-fluorobenzonitrile]"
< 10,>10,"N#CCC1(n2cc(-c3ncnc4[nH]ccc34)cn2)CN(C2CCN(C(=O)c3ccnc(C(F)(F)F)c3F)CC2)C1 [Example 7, {1-{1-[3-Fluoro-2-(trifluoromethyl)isonicotinoyl]piperidin-4-yl}-3-[4-(7H-pyrrolo[2,3-d]pyrimidin-4-yl)-1H-pyrazol-1-yl]azetidin-3-yl}acetonitrile]"
< 10,>10,"N#CCC1(n2cc(-c3ncnc4[nH]ccc34)cn2)CN(C2CCN(C(=O)Nc3ccc(F)cc3C(F)(F)F)CC2)C1 [Example 8, 4-{3-(Cyanomethyl)-3-[4-(7H-pyrrolo[2,3-d]pyrimidin-4-yl)-1H-pyrazol-1-yl]azetidin-1-yl}-N-[4-fluoro-2-(trifluoromethyl)phenyl] piperidine-1-carboxamide]"
< 10,>10,"N#CCC1(n2cc(-c3ncnc4[nH]ccc34)cn2)CN(C2CCN(C(=O)c3ccnc(C(F)(F)F)n3)CC2)C1 [Example 9, [3-[4-(7H-pyrrolo[2,3-d]pyrimidin-4-yl)-1H-pyrazol-1-yl]-1-(1-{[2,- (trifluoromethyl)pyrimidin-4-yl]carbonyl}piperidin-4-yl)azetidin-3-yl]acetonitrile]"
< 10,>10,"N#CC[C@]1(n2cc(-c3ncnc4[nH]ccc34)cn2)C[C@H](N2CCN(C(=O)c3ccnc(C(F)(F)F)n3)CC2)C1 [Example 10, [trans-1-[4-(7H-pyrrolo[2,3-d]pyrimidin-4-yl)-1H-pyrazol-1-yl]-3-(4-{[2-(trifluoromethyl)pyrimidin-4-yl]carbonyl}piperazin-1-yl)cyclobutyl]acetonitrile]"
< 10,>10,"N#CC[C@]1(n2cc(-c3ncnc4[nH]ccc34)cn2)C[C@H](N2CCC(Oc3cc(CN4CC(O)C4)cc(C(F)(F)F)n3)CC2)C1 [Example 11, {trans-3-(4-{[4-[(3-hydroxyazetidin-1-yl)methyl]-6-(trifluoromethyl)pyridin-2-yl]oxy}piperidin-1-yl)-1-[4-(7H-pyrrolo[2,3-d]pyrimidin-4-yl)-1H-pyrazol-1-yl]cyclobutyl}acetonitrile]"
< 10,>10,N#CC[C@]1(n2cc(-c3ncnc4[nH]ccc34)cn2)C[C@H](N2CCC(Oc3cc(CN4CCC[C@H]4CO)cc(C(F)(F)F)n3)CC2)C1 [Example 12]
